Tests used:
[1] = tested on: bedstraw; assay: Test B pre/postemergence bedstraw; assay type: in vivo, Galium aparine
Outline: (§1)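 Response is a visual 0-to-10 score relative to untreated plants, where 0 means no effect and 10 means complete control, taken twelve to sixteen days after application. Treatments went onto soil at planting and onto foliage of 1- to 4-leaf plants, using a surfactant-containing non-phytotoxic solvent.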

[2] = tested on: blackgrass; assay: Test B pre/postemergence blackgrass; assay type: in vivo, Alopecurus myosuroides
Outline: as §1

[3] = tested on: surinam grass; assay: Test B pre/postemergence surinam grass; assay type: in vivo, Brachiaria decumbens
Outline: as §1

[4] = tested on: cocklebur; assay: Test B pre/postemergence cocklebur; assay type: in vivo, Xanthium strumarium
Outline: as §1

[5] = tested on: corn; assay: Test B pre/postemergence corn; assay type: in vivo, Zea mays
Outline: as §1

[6] = tested on: morningglory; assay: Test B pre/postemergence morningglory; assay type: in vivo, Ipomoea hederacea
Outline: as §1

[7] = tested on: pigweed; assay: Test B pre/postemergence pigweed; assay type: in vivo, Amaranthus retroflexus
Outline: as §1

[8] = tested on: rape; assay: Test B pre/postemergence rape; assay type: in vivo, Brassica napus
Outline: as §1

[9] = tested on: soybean; assay: Test B pre/postemergence soybean; assay type: in vivo, Glycine max
Outline: as §1

[10] = tested on: sugar beet; assay: Test B pre/postemergence sugar beet; assay type: in vivo, Beta vulgaris
Outline: as §1

[11] = tested on: velvetleaf; assay: Test B pre/postemergence velvetleaf; assay type: in vivo, Abutilon theophrasti
Outline: as §1

[12] = tested on: wild oat; assay: Test B pre/postemergence wild oat; assay type: in vivo, Avena fatua
Outline: as §1

[13] = tested on: purple nutsedge; assay: Test B pre/postemergence purple nutsedge; assay type: in vivo, Cyperus rotundus
Outline: as §1

[14] = tested on: rice; assay: Test B flood test rice; assay type: in vivo, Oryza sativa
Outline: (§2)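 Plants were grown to the 2-leaf stage before treatment with test chemical, then held in a greenhouse for twelve to sixteen days. Injury was visually rated against untreated controls on a 0–10 scale, where 0 is no effect and 10 is complete control.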

[15] = tested on: smallflower flatsedge; assay: Test B flood test smallflower flatsedge; assay type: in vivo, Cyperus difformis
Outline: as §2

[16] = tested on: bamyardgrass; assay: Test B flood test barnyardgrass; assay type: in vivo, Echinochloa crus-galli
Outline: as §2

[17] = Preemergence, Rate 250 g/ha, scale of 0 to 10 where 0 is no effect and 10 is complete control
[18] = Preemergence, Rate 500 g/ha, scale of 0 to 10 where 0 is no effect and 10 is complete control
[19] = Rate 62 g/ha, Postemergence, scale of 0 to 10 where 0 is no effect and 10 is complete control
[20] = Rate 125 g/ha, Postemergence, scale 0 to 10
[21] = Rate 125 g/ha, Preemergence, scale of 0 to 10 where 0 is no effect and 10 is complete control
[22] = Rate 500 g/ha, Postemergence, scale 0 to 10, 0 no effect, 10 complete control
[23] = Preemergence, Rate 62 g/ha, scale of 0 to 10 where 0 is no effect and 10 is complete control
[24] = Rate 62 g/ha, headed Pre-emergence (flood test species), scale 0 to 10 (0 no effect, 10 complete control)
[25] = Rate 125 g/ha, Pre-emergence, flood test species, scale 0 to 10 where 0 is no effect and 10 is complete control
[26] = Rate 250 g/ha, Pre-emergence, flood-test species, scale 0 to 10, 0 is no effect, 10 is complete control
[27] = Rate 500 g/ha, Pre-emergence, flood test species, scale 0 to 10 (0 no effect, 10 complete control)

CC(C)N(C(=O)n1oc(=O)n(C2CC2)c1=O)c1ccc(Cl)cc1 [Compound 241]
3: Bedstraw plant response rating [1, 20] | Blackgrass plant response rating [2, 19] | Morningglory plant response rating [6, 17] | Morningglory plant response rating [6, 19] | Wild oats plant response rating [12, 23]
7: Bedstraw plant response rating [1, 17] | Plant response rating (0 to 10; 0 is no effect, 10 is complete control), Bedstraw ([1]; Rate 250 g/ha, Postemergence) | Bedstraw plant response rating [1, 22] | Blackgrass plant response rating [2, 17] | Blackgrass plant response rating [2, 20] | Redroot pigweed plant response rating [7, 22] | Plant response rating, Velvetleaf [11, 18]
0: Bedstraw plant response rating [1, 19] | Bedstraw plant response rating [1, 21] | B. signalgrass plant response rating [3, 23] | B. signalgrass plant response rating [3, 19] | Cocklebur plant response rating [4, 23] | Cocklebur plant response rating [4, 17] | Plant response rating, Cocklebur [4, 18] | Cocklebur plant response rating [4, 19] | Cocklebur plant response rating [4, 20] | Cocklebur plant response rating [4, 21] | Corn plant response rating [5, 23] | Corn plant response rating [5, 17] | Corn plant response rating [5, 19] | Corn plant response rating [5, 20] | Corn plant response rating [5, 21] | Plant response rating (0 to 10; 0 is no effect, 10 is complete control), Corn ([5]; Rate 250 g/ha, Postemergence) | Corn plant response rating [5, 22] | Morningglory plant response rating [6, 23] | Morningglory plant response rating [6, 21] | Redroot pigweed plant response rating [7, 23] | Redroot pigweed plant response rating [7, 19] | Redroot pigweed plant response rating [7, 21] | Plant response rating (0 to 10; 0 is no effect, 10 is complete control), Redroot pigweed ([7]; Rate 250 g/ha, Postemergence) | Rape plant response rating [8, 23] | Rape plant response rating [8, 19] | Rape plant response rating [8, 21] | Soybean plant response rating [9, 23] | Soybean plant response rating [9, 17] | Soybean plant response rating [9, 21] | Sugarbeets plant response rating [10, 23] | Sugarbeets plant response rating [10, 19] | Sugarbeets plant response rating [10, 21] | Wild oats plant response rating [12, 19] | Nutsedge plant response rating [13, 19] | Nutsedge plant response rating [13, 21] | Plant response rating (0 to 10; 0 is no effect, 10 is complete control), Nutsedge ([13]; Rate 250 g/ha, Postemergence) | Rice plant response rating [14, 24] | Rice plant response rating [14, 25] | Rice plant response rating [14, 26] | Rice plant response rating [14, 27] | S. Flatsedge plant response rating [15, 24] | S. Flatsedge plant response rating [15, 25] | S. Flatsedge plant response rating [15, 26] | S. Flatsedge plant response rating [15, 27] | Barnyardgrass plant response rating [16, 24] | Barnyardgrass plant response rating [16, 25] | Barnyardgrass plant response rating [16, 26] | Barnyardgrass plant response rating [16, 27]
8: Plant response rating (0 to 10; 0 is no effect, 10 is complete control), Blackgrass ([2]; Rate 250 g/ha, Postemergence) | Morningglory plant response rating [6, 22] | Wild oats plant response rating [12, 17] | Plant response rating, Wild oats [12, 18]
4: B. signalgrass plant response rating [3, 17] | Plant response rating, B. signalgrass [3, 18] | Plant response rating (0 to 10; 0 is no effect, 10 is complete control), B. signalgrass ([3]; Rate 250 g/ha, Postemergence) | Rape plant response rating [8, 22] | Plant response rating, Soybean [9, 18] | Soybean plant response rating [9, 22]
5: Plant response rating, Corn [5, 18] | Plant response rating, Morningglory [6, 18] | Plant response rating (0 to 10; 0 is no effect, 10 is complete control), Morningglory ([6]; Rate 250 g/ha, Postemergence) | Rape plant response rating [8, 17] | Sugarbeets plant response rating [10, 22] | Velvetleaf plant response rating [11, 17] | Velvetleaf plant response rating [11, 21] | Wild oats plant response rating [12, 21]
6: Blackgrass plant response rating [2, 23] | Blackgrass plant response rating [2, 21] | B. signalgrass plant response rating [3, 22] | Sugarbeets plant response rating [10, 17] | Plant response rating, Sugarbeets [10, 18] | Nutsedge plant response rating [13, 22]
10: Plant response rating, Bedstraw [1, 18] | Plant response rating, Blackgrass [2, 18] | Plant response rating, Redroot pigweed [7, 18] | Nutsedge plant response rating [13, 17] | Plant response rating, Nutsedge [13, 18]
9: Blackgrass plant response rating [2, 22] | Redroot pigweed plant response rating [7, 17] | Plant response rating, Rape [8, 18]
2: B. signalgrass plant response rating ([3]; Rate 125 g/ha, Postemergence, scale 0 (no effect) to 10 (complete control)) | B. signalgrass plant response rating [3, 21] | Plant response rating (0 to 10; 0 is no effect, 10 is complete control), Rape ([8]; Rate 250 g/ha, Postemergence) | Velvetleaf plant response rating [11, 23] | Velvetleaf plant response rating [11, 19] | Wild oats plant response rating [12, 22]
1: Plant response rating (0 to 10; 0 is no effect, 10 is complete control), Cocklebur ([4]; Rate 250 g/ha, Postemergence) | Cocklebur plant response rating [4, 22] | Soybean plant response rating [9, 19] | Velvetleaf plant response rating [11, 22]

From patent publication US6737383B1, “Herbicidal oxadiazolidines” (priority 1999, dated 2004)
